Here are results for two compounds from paper PMC11786751, “An SH3-binding allosteric modulator stabilizes the global conformation of the AML-associated Src-family kinase, Hck” (The Journal of Biological Chemistry, 2024).

The target of one assay is T1, Src (Homo sapiens, UniProt P12931).
T1 construct: near-full-length (SH3-SH2-kinase-tail)
Nature of the assay: SPR. The assay is classed as binding.

Assay [1] addresses T2, Hck (Homo sapiens, UniProt P08631, H284A/T285A/Q523E/Q524E/Q525I).
T2 construct: near-full-length Hck (p59 amino acids 84–524, modified tail YEEIP)
Put plainly: kinetic kinase assay (ADP Quest), activation of the mutant kinase. Format: biochemical.

The next assay deals with T3, Lyn (Homo sapiens, UniProt P07948).
T3 construct: near-full-length (SH3-SH2-kinase-tail)
T3 sequence (P07948 2-512): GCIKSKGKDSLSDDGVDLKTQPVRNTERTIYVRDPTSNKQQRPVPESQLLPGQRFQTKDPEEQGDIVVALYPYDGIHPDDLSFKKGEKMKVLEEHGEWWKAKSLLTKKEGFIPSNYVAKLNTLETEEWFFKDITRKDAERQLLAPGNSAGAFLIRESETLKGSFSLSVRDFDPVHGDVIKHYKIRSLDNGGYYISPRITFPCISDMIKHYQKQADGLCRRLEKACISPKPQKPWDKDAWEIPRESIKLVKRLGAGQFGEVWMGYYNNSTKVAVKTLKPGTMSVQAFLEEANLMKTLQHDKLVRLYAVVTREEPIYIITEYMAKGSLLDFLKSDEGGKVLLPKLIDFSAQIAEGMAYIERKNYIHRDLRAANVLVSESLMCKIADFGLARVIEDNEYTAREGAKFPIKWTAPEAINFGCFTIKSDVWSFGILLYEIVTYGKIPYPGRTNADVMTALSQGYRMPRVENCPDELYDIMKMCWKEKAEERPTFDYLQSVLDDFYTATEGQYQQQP
Put plainly: SPR. Format: binding.

Assay [2] addresses T4, Hck (Homo sapiens, UniProt P08631).
T4 construct: SH3 domain (p59 Hck amino acids 80–144); also SH3-SH2-linker (84–261) and near-full-length Hck (84–524)
Nature of the assay: 1H-15N HSQC NMR titration; also SPR (KD […], near-full-length) and HDX-MS. The assay is classed as binding.

The target in assay [3] is T4, Hck. Put plainly: 1H-15N HSQC NMR titration; also SPR (KD […], near-full-length), HDX-MS and kinase activation. The assay is classed as binding.

The structures appear in SMILES notation.

T1 sequence (P12931 2-536): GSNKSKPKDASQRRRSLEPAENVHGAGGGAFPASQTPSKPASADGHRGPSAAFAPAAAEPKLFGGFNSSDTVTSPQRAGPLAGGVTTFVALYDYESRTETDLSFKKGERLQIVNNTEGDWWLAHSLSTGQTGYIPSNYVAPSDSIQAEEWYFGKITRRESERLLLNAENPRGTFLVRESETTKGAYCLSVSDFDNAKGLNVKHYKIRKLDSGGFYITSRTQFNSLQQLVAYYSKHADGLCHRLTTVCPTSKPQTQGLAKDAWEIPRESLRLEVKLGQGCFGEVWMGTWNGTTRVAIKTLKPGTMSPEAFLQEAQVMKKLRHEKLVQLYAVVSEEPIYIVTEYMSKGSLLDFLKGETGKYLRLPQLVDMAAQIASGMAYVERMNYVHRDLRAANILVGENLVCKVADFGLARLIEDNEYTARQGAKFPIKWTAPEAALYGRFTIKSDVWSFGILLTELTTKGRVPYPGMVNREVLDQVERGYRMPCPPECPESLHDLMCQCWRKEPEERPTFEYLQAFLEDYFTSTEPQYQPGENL
T4 sequence (P08631 75-139): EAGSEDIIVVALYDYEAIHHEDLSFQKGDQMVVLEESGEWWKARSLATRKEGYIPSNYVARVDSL
T2 sequence (P08631 79-526 H284A/T285A/Q523E/Q524E/Q525I): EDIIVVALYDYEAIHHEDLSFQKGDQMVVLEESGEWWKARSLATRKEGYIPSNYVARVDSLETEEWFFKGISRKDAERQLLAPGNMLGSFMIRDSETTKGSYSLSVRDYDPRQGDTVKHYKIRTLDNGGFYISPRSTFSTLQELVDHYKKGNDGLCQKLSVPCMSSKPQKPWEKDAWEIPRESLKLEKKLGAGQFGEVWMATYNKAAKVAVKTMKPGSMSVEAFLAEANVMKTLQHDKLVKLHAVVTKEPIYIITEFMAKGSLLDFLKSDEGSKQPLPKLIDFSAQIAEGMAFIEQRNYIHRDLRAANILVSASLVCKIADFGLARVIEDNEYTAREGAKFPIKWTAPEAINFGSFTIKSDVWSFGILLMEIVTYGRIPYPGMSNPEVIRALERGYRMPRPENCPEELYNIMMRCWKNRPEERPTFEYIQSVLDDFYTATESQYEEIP

One may read the Kd as a measure of binding affinity in units of concentration. Read a low Kd as higher affinity. Turning to `CC(C)Nc1ccnc(NCc2cccnc2Oc2ccc(F)cc2)n1` [PDA1], the Kd at Src amounted to 55 ± 2.18 µM; on Lyn it was 74.9 ± 19.9 µM; at Hck [2] it was 42.6 ± 4.7 µM. For the same compound, the “kinetic kinase assay (ADP Quest), activation of the mutant kinase” value at Hck [1] is “Both PDA1 and PDA2 activated Hck-HTA (Fig. 7B), unlike WT Hck, which is only activated by PDA2”.
Turning to `Cc1cnc(NCc2ccccc2-n2ccnc2)nc1N(C)C` [PDA2], the Kd at Src was determined as 236 ± 18.1 µM; on Hck [3] it was 65.1 ± 3.1 µM; on Lyn it was 180 ± 33.7 µM.
